# According to patent publication US5965717A, “Organic pigments from twisted benzidines” (North Carolina State University, priority 1997, dated 1999):
# How the values were obtained:
# Salmonella = conditions: cited from earlier work
# [1] = system: Salmonella typhimurium strains, TA98 and TA100; experiment: Ames test (Salmonella mammalian microsome mutagenicity assay), with and without rat liver S9; format: cell-based; conditions: presence and absence of metabolic activation (rat liver S9)
# From the text: (§1) The most widely accepted mutagenicity screening test procedure for amines is the Salmonella mammalian microsome mutagenicity assay developed by Ames et al. (Mutat. Res., 31 (1975) 347), hereinafter referred to as the Ames test. Subsequently, a modification of the Ames test was introduced by Prival et al. (Mutat. Res., 97 (2) (1982) 103) specifically for evaluating the mutagenicity of azo compounds, hereinafter referred to as the Prival modification. For a general discussion of mutagenicity as it pertains to colored materials, see, for instance, Freeman et al., Genotoxicity of Azo Dyes: Bases and Implications, Physico-Chemical Principles of Color Chemistry, Advances in Color Chemistry Series, Vol. 4, ed. by A. T. Peters and H. S. Freeman (Blackie Academic Press: Glasgow, 1996) 254-291; Freeman et al., Dyes Pigm. 8 (6) (1987) 431-47; and Freeman et al., CHEMTECH, July (1991), 438-445.
# (§2) Mutagenicity testing of the pure derivatives of benzidine was performed using the standard Ames test, as described by Ames et al. (Mutat. Res., 31 (1975) 347). Mutagenicity testing of the various pigments was performed using the standard Ames test, and also using the Prival modification, as described by Prival et al. (Mutat. Res., 97 (2) (1982) 103).
# (§3) More particularly, two Salmonella typhimurium strains, TA98 and TA100, were employed for mutagenicity testing. All benzidine derivatives and the pigments made therefrom were evaluated in the presence and absence of metabolic activation. In the Ames test, metabolic activation was achieved using rat liver S9, whereas hamster liver S9 was employed in the Prival modification. A mutagenic response was recorded for a test compound if the number of revertant colonies counted was more than twice the number of spontaneous revertant colonies formed in the absence of the test compound. A nonmutagenic response (Ames negative or Prival negative) was recorded when the number of revertant colonies counted was less than twice the number of spontaneous revertant colonies.
# [2] = system: Salmonella typhimurium strains, TA98 and TA100; experiment: Prival modification of the Ames test, with and without hamster liver S9; format: cell-based; conditions: presence and absence of metabolic activation (hamster liver S9)
# From the text: as §1, §2, §3
# [3] = in N,N-dimethylformamide (DMF); cited from earlier work
Structure (SMILES),mutagenicity in the Ames test (prior art) (Salmonella),mutagenicity in the Ames test [1],mutagenicity in the Prival modification [2],λmax [3] [nm]
"Cc1cc(-c2ccc(N)c(C)c2)ccc1N [3,3'-dimethylbenzidine]",mutagenic,–,–,–
"CCCOc1cc(-c2cc(OCCC)c(N)cc2C)c(C)cc1N [compound 12, 2,2'-dimethyl-5,5'-dipropoxybenzidine]",–,Ames negative (the number of revertant colonies counted was less than twice the number of spontaneous revertant colonies),–,–
CCCOc1cc(-c2cc(OCCC)c(NN=C(C(C)=O)C(=O)Nc3ccccc3OC)cc2OC)c(OC)cc1NN=C(C(C)=O)C(=O)Nc1ccccc1OC [Pigment 98],–,negative (the number of revertant colonies counted was less than twice the number of spontaneous revertant colonies),negative (the number of revertant colonies counted was less than twice the number of spontaneous revertant colonies),–
CCCOc1cc(-c2cc(OCCC)c(NN=C(C(C)=O)C(=O)Nc3ccc4[nH]c(=O)[nH]c4c3)cc2C)c(C)cc1NN=C(C(C)=O)C(=O)Nc1ccc2[nH]c(=O)[nH]c2c1 [Pigment 113],–,negative (the number of revertant colonies counted was less than twice the number of spontaneous revertant colonies),negative (the number of revertant colonies counted was less than twice the number of spontaneous revertant colonies),–
COc1cc(-c2ccc(NN=C(C(C)=O)C(=O)Nc3ccccc3)c(OC)c2)ccc1NN=C(C(C)=O)C(=O)Nc1ccccc1 [compound 1],–,–,–,445
COc1ccccc1NN=C(C(C)=O)C(=O)Nc1ccccc1 [compound 2],–,–,–,392
CCCOc1cc(-c2cc(OCCC)c(N=CC3C(=O)NC(=S)NC3=O)cc2C)c(C)cc1N=CC1C(=O)NC(=S)NC1=O [Pigment 93],–,negative (the number of revertant colonies counted was less than twice the number of spontaneous revertant colonies),negative (the number of revertant colonies counted was less than twice the number of spontaneous revertant colonies),–
"COc1cc(-c2ccc(N)c(OC)c2)ccc1N [3,3'-dimethoxybenzidine]",mutagenic,–,–,–
"Cc1cc(-c2cc(C)c(N)c(C)c2)cc(C)c1N [3,5,3',5'-tetramethylbenzidine]",nonmutagenic,–,–,–
CCCOc1cc(-c2cc(OCCC)c(NN=C3C(=O)N(c4ccccc4)N=C3C)cc2C)c(C)cc1NN=C1C(=O)N(c2ccccc2)N=C1C [Pigment 108],–,negative (the number of revertant colonies counted was less than twice the number of spontaneous revertant colonies),negative (the number of revertant colonies counted was less than twice the number of spontaneous revertant colonies),–
CCCOc1cc(-c2cc(OCCC)c(NN=C(C(C)=O)C(=O)Nc3ccccc3OC)cc2Cl)c(Cl)cc1NN=C(C(C)=O)C(=O)Nc1ccccc1OC [Pigment 107],–,negative (the number of revertant colonies counted was less than twice the number of spontaneous revertant colonies),negative (the number of revertant colonies counted was less than twice the number of spontaneous revertant colonies),–
"CCCOc1cc(-c2cc(OCCC)c(N)cc2OC)c(OC)cc1N [compound 26, 2,2'-dimethoxy-5,5'-dipropoxybenzidine]",–,Ames negative (the number of revertant colonies counted was less than twice the number of spontaneous revertant colonies),–,–
"Nc1ccc(-c2ccc(N)c(Cl)c2)cc1Cl [3,3'-dichlorobenzidine]",mutagenic,–,–,–
CCCOc1cc(-c2cc(OCCC)c(NN=C(C(C)=O)C(=O)Nc3ccccc3)cc2C)c(C)cc1NN=C(C(C)=O)C(=O)Nc1ccccc1 [Pigment 95],–,negative (the number of revertant colonies counted was less than twice the number of spontaneous revertant colonies),negative (the number of revertant colonies counted was less than twice the number of spontaneous revertant colonies),–
